Data from patent US20200239530A1, “COMPOUNDS AND METHODS OF MODULATING PROTEIN DEGRADATION” (Vividion Therapeutics, Inc., priority 2017, published 2020).

Tests used:
[1] = biological target: T1, SEC63 Translocation protein SEC63 homolog (Homo sapiens, UniProt Q9UGP8); assay: Cysteine liganding, probe competition; type: binding
T1 construct: Cells were resuspended in cold PBS on ice and sonicated with a probe sonicator to achieve lysis; endogenous in cells
T1 sequence (Q9UGP8 1-760): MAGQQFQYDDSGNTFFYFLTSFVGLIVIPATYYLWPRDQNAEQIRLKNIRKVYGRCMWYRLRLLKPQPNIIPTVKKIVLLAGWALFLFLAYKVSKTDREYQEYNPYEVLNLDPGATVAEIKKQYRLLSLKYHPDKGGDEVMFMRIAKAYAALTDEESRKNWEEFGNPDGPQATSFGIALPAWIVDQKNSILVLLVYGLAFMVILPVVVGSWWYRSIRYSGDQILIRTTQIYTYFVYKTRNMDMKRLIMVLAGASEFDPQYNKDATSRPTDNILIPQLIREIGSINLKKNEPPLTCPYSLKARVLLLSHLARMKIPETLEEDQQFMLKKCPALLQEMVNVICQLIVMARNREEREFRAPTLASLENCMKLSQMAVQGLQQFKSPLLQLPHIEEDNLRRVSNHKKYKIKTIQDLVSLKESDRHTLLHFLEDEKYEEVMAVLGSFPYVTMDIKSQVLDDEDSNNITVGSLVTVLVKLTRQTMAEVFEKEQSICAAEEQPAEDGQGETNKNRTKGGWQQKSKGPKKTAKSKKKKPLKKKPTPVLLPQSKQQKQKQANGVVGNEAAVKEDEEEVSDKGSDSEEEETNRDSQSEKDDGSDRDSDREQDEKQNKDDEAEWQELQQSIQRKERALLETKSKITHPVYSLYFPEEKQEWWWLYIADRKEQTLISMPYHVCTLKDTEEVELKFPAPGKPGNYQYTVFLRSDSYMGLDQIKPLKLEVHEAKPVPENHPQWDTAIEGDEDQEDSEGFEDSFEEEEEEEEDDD
Outline: (§1)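 Steps: sonicate cells in cold PBS; treat 5 mg/ml lysate with compound (25° C, 1 hr); add desthiobiotin iodoacetamide probe from a 10 mM stock (25° C, 1 hr); precipitate, reduce, alkylate, digest with trypsin; capture labelled peptides on streptavidin for analysis.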

[2] = biological target: T2, ALDH18A1 Delta-1-pyrroline-5-carboxylate synthase (Homo sapiens, UniProt P54886); assay: Cysteine liganding, probe competition; type: binding
T2 construct: Cells were resuspended in cold PBS on ice and sonicated with a probe sonicator to achieve lysis; endogenous in cells
T2 sequence (P54886 1-795): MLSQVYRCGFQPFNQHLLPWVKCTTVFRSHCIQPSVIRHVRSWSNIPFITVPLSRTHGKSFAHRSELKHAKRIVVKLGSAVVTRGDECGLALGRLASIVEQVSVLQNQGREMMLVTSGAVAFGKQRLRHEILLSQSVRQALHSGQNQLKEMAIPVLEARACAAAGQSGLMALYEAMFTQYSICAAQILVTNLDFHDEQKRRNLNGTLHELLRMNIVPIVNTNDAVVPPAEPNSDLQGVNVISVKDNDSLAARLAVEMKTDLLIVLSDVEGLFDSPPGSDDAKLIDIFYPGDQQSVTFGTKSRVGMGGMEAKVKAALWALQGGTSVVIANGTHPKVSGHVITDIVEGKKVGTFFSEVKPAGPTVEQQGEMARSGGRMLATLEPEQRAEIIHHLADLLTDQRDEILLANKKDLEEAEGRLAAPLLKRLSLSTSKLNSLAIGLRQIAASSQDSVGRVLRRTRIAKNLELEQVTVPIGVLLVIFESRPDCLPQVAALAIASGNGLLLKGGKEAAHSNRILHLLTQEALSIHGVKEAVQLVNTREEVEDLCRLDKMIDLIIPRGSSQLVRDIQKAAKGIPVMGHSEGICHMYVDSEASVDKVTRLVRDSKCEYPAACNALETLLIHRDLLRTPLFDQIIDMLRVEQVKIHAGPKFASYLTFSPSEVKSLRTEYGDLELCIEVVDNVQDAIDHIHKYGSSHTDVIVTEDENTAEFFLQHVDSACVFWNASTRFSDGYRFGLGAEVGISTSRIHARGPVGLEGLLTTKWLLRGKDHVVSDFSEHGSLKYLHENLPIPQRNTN
Outline: as §1

Row | SMILES | 100 Max ([1]; uniprot Q9UGP8) | 100 ave ([1]; uniprot Q9UGP8) | 500 Max ([1]; uniprot Q9UGP8) | 500 ave ([1]; uniprot Q9UGP8) | 100 Max ([2]; uniprot P54886) | 100 ave ([2]; uniprot P54886) | 500 Max ([2]; uniprot P54886) | 500 ave ([2]; uniprot P54886) | Liganded ([1]; SEC63 Res# 295, uniprot Q9UGP8) | Liganded ([2]; ALDH18A1 Res# 612, uniprot P54886)
1 | O=C(CCl)Nc1cc(C(F)(F)F)cc(C(F)(F)F)c1 [KBO3] | 17.92 | 4.99 | 55.53 | 48.96 | 34.21 | 13.91 | 66.31 | 66.23 |  | 
2 | COc1ccc2c(c1)CCCN2C(=O)CCl [KB02] |  |  |  |  |  |  |  |  | YES | YES
